Entries after “also recorded” stand apart in the source; their conditions may differ.
Experiments:
[1] = system: carrageenan inflammatory pain model in male C57BL/6 mice; experiment: Carrageenan inflammatory pain model, Von Frey paw withdrawal threshold; assay type: in vivo; conditions: for contralateral paw withdrawal threshold / ipsilateral paw withdrawal threshold compared to vehicle: 180 minutes after carrageenan; for carrageenan-induced mechanical hyperalgesia: ipsilateral paw
Method: Mice are acclimated to the colony room and maintained on a 12 hour/12 hour light/dark cycle. To induce plantar sensitivity to tactile stimuli, a single injection of carrageenan is administered to the plantar hindpaw of the mice and withdrawal from a mechanical stimulus is measured by applying Von Frey filaments of ascending bending force to the plantar surface of the hind paws.
A compound of formula (I) is dissolved and administered subcutaneous (sc) or orally (po) prior to carrageenan administration and after carrageenan injections. Data is analyzed by analysis of variance (ANOVA) followed by post-hoc comparisons with Fisher Tests when appropriate.
The analgesic effects of AC151 and Alda-1 were evaluated using the carrageenan inflammatory pain model in male C57BL/6 mice. The mice were administered AC151, Alda-1 and vehicle (saline) as a control.
Male C57BL/6J mice from Jackson Laboratories (Bar Harbor, Me.) were used in this study. Mice were received at 6-7 weeks of age. Upon receipt, mice were assigned unique identification numbers (tail marked) and were group housed in OPTImice cages. All animals were acclimated to the colony room for at least 1 week prior to testing. During the period of acclimation, animals were examined on a regular basis, handled, and weighed to assure adequate health and suitability. Animals were maintained on a 12 hour/12 hour light/dark cycle. The room temperature was maintained between 20° C. and 23° C. with a relative humidity maintained between 30% and 70%. Chow and water were provided ad libitum for the duration of the study. All testing was performed during the animal's light cycle phase.
To induce plantar sensitivity to tactile stimuli, a single injection of carrageenan was administered to the plantar hindpaw of the mice and three hours later withdrawal from a mechanical stimulus is measured by applying Von Frey filaments of ascending bending force (0.02 to 6 grams) to the plantar surface of the hind paws (ipsilateral and contralateral to injection). A positive response was defined as withdrawal from the Von Frey filament. Confirmation of threshold is tested by examining the filament above and below the withdrawal response. A significant decrease in withdrawal threshold is interpreted as mechanical hyperalgesia. Prior to drug or carrageenan treatment, baseline Von Frey measures were taken and used to balance animals across treatment groups.
Alda-1 (1, 2, and 5 mg/kg) was dissolved in 50% DMSO/50% PEG and administered subcutaneous (sc), 15 min prior to carrageenan administration and twice again 30 and 150 minutes after carrageenan injections at a dose volume of 5 ml/kg. AC151 (40 and 80 mg/kg) was dissolved in saline and administered orally (po), 30 min after carrageenan administration. For one group, AC151 (80 mg/kg) was administered 15 min prior to carrageenan injections. The dose volume for this compound was 10 ml/kg.
The initial injections of AC151 (80 mg/kg) and Alda-1 were made 15 min prior to carrageenan injections. Then, a single 3.5 μl injection of 3% carrageenan was administered to the right plantar hindpaw. Alda-1 was then administered twice, once 30 minutes after carrageenan and again 150 minutes post-carrageenan. In separate treatment groups AC151 (40 mg/kg and 80 mg/kg) as well as saline vehicle were administered 30 minutes after carrageenan injection. Von Frey measures were taken 180 minutes after carrageenan injection.
Data were analyzed by analysis of variance (ANOVA) followed by post-hoc comparisons with Fisher Tests when appropriate. An effect was considered significant if p<0.05. […].

ALDH2 = target: T1, ALDH2 (Homo sapiens, UniProt P05091); experiment: ALDH2 activity with 20 μM of the compound (Table 3); assay type: biochemical; conditions: 20 μM compound
T1 construct: His-tag (N); made in house; host or cells: E. coli BL21
T1 sequence (P05091 18-517): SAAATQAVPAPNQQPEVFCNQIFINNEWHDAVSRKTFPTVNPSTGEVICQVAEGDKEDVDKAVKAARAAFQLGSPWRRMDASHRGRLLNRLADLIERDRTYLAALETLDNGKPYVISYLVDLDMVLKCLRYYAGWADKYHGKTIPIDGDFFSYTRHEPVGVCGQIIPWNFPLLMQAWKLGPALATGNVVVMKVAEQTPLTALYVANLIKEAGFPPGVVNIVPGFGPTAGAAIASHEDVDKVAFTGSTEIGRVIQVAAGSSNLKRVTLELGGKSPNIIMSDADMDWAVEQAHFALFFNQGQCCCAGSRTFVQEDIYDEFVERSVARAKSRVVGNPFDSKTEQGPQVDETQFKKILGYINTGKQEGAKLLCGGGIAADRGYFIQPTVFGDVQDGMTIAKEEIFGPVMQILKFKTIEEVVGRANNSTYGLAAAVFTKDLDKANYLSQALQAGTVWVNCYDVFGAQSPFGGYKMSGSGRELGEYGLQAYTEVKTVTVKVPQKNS
How it was run: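 Compound was tested at 20 μM. ALDH2 oxidation of acetaldehyde with NAD+ cofactor was followed spectrophotometrically as NADH accumulation at 340 nm. Activity is expressed relative to the enzyme's baseline activity, taken as 100%.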

[2] = system: FANCA deficiency lymphocyte cell line (FANCA B-lymphocyte, GM13022); experiment: Proliferation of FANCA deficient lymphocytes under 4 HNE challenge (alamarBlue); assay type: cell-based
Method: FANCA deficiency lymphocyte cell line (Fanconi Anemia, Complementation Group A, FANCA B-lymphocyte, GM13022) was purchased from Coriell Cell Repositories (403 Haddon Ave, Camden, N.J. 08103).
Standard cell culture conditions were used in this experiment. The culture medium (CM) consisted of culture medium RPMI1640, 15% heat-inactivated FBS, 2 mM L-glutamine, 1% Pen/Strep. Cells were suspended in 10-20 ml CM in T25 tissue culture flask in an upright position and incubated in a 37° C., 5% CO2 incubator. Cells were counted daily and diluted with fresh CM to 3×10^5 cells/ml. Cells thawed and maintained in culture for 3-12 days were used in these studies.
Cell densities of FANCA lymphocytes were determined and cells were diluted in RPMI1640 medium containing 15% FBS, 2 mM L-glutamine, 1% Pen/Strep to desired cell density. 4000 cells in 50-75 μl were plated onto each well in total 48 wells in columns 3-10 and rows B-G. This plating arrangement provided 6-replicates per column for each experimental condition. Plate was then centrifuged at 500 rpm for 2 min to ensure better distribution of cells across the well. For background medium controls, equal volume (50-75 μl) of dilution medium were added to wells B2, C2, D2.
For minimizing cells/medium drying in sample wells, 150 μl of 1×DPBS was added to each well of the 45 wells surrounding the sample and control wells. Plate was then incubated in a 37° C. 5% CO2 incubator for at least 4 hours before addition of new reagent.
Compounds were diluted from 20 mM stocks in DMSO with RPMI1640 medium containing 15% FBS. RPMI1640 medium containing 15% FBS and corresponding volume of DMSO was used as controls.
4 HNE (64 mM in 100% ethanol) was diluted to desired concentrations with RPMI1640 base medium.
AlamarBlue was added to each well to final 9.1 or 10% of the total volume in each well. Plate was further incubated in the 37° C. 5% CO2 incubator. The alamarBlue assay is designed to measure quantitatively the proliferation of human and animal cell lines in culture versus incubation time period.
Plate was removed from the CO2 incubator at a pre-designated time and placed in the microplate reader. The fluorescence level in each well was monitored at Ex 554 nm and Em 590 nm. Afterwards the numeric numbers/units were used for data analyses.
Fluorescence units in all wells were acquired by the microplate reader at each time point. Data were then exported to scientist's computer equipped with SoftMax ProS software. The average of Background units (Blk, 3×) and the average of each sample set (6 replicates) were determined. For data collected at each time point (cell culture incubation period), the average of Blk units were subtracted from the average of each set of the Sample units. These “net fluorescence unit” data were then presented in a plot consisted of different culture incubation time periods (the x-axis) versus the corresponding net fluorescence units (y-axis).
The “net fluorescence units” of each sample set were also compared to those of the “control” at each time point. “Control fluorescence units” were considered to be 100% at all the time points. Each set of “net fluorescence units” were divided by the “Control fluorescent units” and multiplied by 100 to obtain corresponding percentages. These “relative percentage” data were then presented in a plot consisted of time points (the x-axis) versus the corresponding relative percentages to control of 100 (y-axis).
The inhibitory effect of 4 HNE on the proliferation of FANCA lymphocytes was examined. 4000 cells in 75 μl of RPMI1640 medium containing 15% FBS were plated onto each sample well in a 96-well poly D-lysine coated black/clear cell culture plate and the plate was incubated in a 37° C. 5% CO2 incubator for 7 hours.
Stock of 4 HNE at 64 mM was diluted with RPMI1640 medium to 10 μM, 20 μM, 30 μM, 40 μM, 60 μM, 80 μM, and 120 μM. […]

COc1ccc(CNC(=O)c2cc(-c3ncccc3COC(=O)[C@H](N)C(C)C)ccc2OCC(C)C)cc1F [AC151]
contralateral paw withdrawal threshold [1]: No treatment effects | ipsilateral paw withdrawal threshold compared to vehicle ([1]; AC151 40 and 80 mg/kg po (all groups)): significantly increased paw withdrawal threshold | carrageenan-induced mechanical hyperalgesia [1]: attenuated carrageenan-induced mechanical hyperalgesia

COc1ccc(CNC(=O)c2cc(-c3n[nH]cc3CO)ccc2OCC2CC2)cc1F [AC32]
activity at 20 µM (ALDH2): > 250% | relative cell proliferation versus control without AC compounds ([2]; 3.5 μM 4 HNE, 5 μM and 10 μM AC6, 10 μM AC32, 25 hours to 48 hours after 4 HNE treatment): higher levels of cell growth than “control”; also recorded: more efficient growth than control | FANCA-deficiency lymphocyte cell growth versus 4 HNE only or 2 μM ALDH2 activators ([2]; 10 μM compound, pretreatment 2 hours before 6 μM 4 HNE challenge): higher levels of cell growth | FANCA-deficiency lymphocyte cell growth versus 4 HNE only ([2]; pretreatment 2 hours before 3.5 μM 4 HNE challenge, 2 to 10 μM compound): higher levels of cell growth

CCCCCC(O)/C=C/C=O (stereo not drawn) [4 HNE, trans-4-Hydroxynonenal, reference compound]
relative cell proliferation rate (control = 100%) ([2]; 3.5 μM 4 HNE only, 25 hours to 48 hours after 4 HNE treatment): 83% | level of FANCA cell proliferation ([2]; 4 HNE 2.5 to 30 μM, no ALDH2 activator): reduction of the level of cell proliferation in a concentration-dependent manner

O=C(NCc1ccc2c(c1)OCO2)c1c(Cl)cccc1Cl [Alda-1, N-(1,3-Benzodioxol-5-ylmethyl)-2,6-dichlorobenzamide, reference compound]
contralateral paw withdrawal threshold [1]: No treatment effects | ipsilateral paw withdrawal threshold compared to vehicle ([1]; Alda-1 5 mg/kg sc, three doses): significantly increased paw withdrawal threshold | carrageenan-induced mechanical hyperalgesia [1]: attenuated carrageenan-induced mechanical hyperalgesia
